Source: patent US9637516B2, “Betulinic acid proline derivatives as HIV inhibitors” (HETERO RESEARCH FOUNDATION, priority 2012, dated 2017)
pIC50: −log10 of the molar value.

Key:
HIV-1 strain 92HT599 = assay: Antiviral activity: p24 estimation in MT2 cells infected with HIV-1 strain 92HT599; format: cell-based; conditions: for inhibition at 0.1 µM: Human immunodeficiency virus 1, 100 nM; for inhibition at 0.1 µM / inhibition at 1 µM: HIV-1 92HT599, p24, ~96 hours; for inhibition at 1 µM: Human immunodeficiency virus 1, 1000 nM; for pIC50: Human immunodeficiency virus 1, HIV-1 92HT599, p24
Summary of the method: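 MT2 cells infected with HIV-1 92HT599 (10 TCID50/30000 cells), ~30,000 cells/well, incubated ~96 h with test compound (DMSO ≤1%). Supernatant p24 quantified by kit; percent inhibition relative to vehicle controls.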

in vitro = format: cell-based; conditions: human, Cytotoxicity % viability
Method: (§1) For cyto-toxicity assay the same amount of MT2 cells as in antiviral assay without virus was added to the 96 well plates. The cyto-toxicity was measured using MTT reagent in parallel with p24 estimation. The percent viability is calculated in comparison with vehicle control.

MT2 cells = assay: in vitro; format: cell-based; conditions: human, 1 µM
Method: as §1

[1] = Single dose oral pharmacokinetic study; format: in vivo, mice; conditions: mouse, plasma; Mice oral PK @30 mg/kg (Table 3)
Summary of the method: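 Mice or rats dosed orally at 30 mg/kg in a suitable vehicle (10 ml/kg). Retro-orbital blood on K3 EDTA at defined time points under light ether anaesthesia; plasma analysed by LC-MS-MS.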

C=C(C)[C@@H]1CC[C@]2(C(=O)N3CCC[C@H]3c3ncc(-c4ccccc4)[nH]3)CC[C@]3(C)[C@H](CC[C@@H]4[C@@]5(C)CC[C@H](OC(=O)CC(C)(C)C(=O)O)C(C)(C)[C@@H]5CC[C@]43C)[C@@H]12 [Compound 8, 2,2-dimethyl-4-oxo-4-((1R,3aS,5aR,5bR,7aR,9S,11aR,11bR,13aR,13bR)-5a,5b,8,8,11a-pentamethyl-3a-((S)-2-(5-phenyl-1H-imidazol-2-yl)pyrrolidine-1-carbonyl)-1-(prop-1-en-2-yl)icosahydro-1H-cyclopenta[a]chrysen-9-yloxy)butanoic acid]
inhibition at 0.1 µM (HIV-1 strain 92HT599): 100% | inhibition at 1 µM (HIV-1 strain 92HT599): 100% | pIC50 (HIV-1 strain 92HT599): 7.89 | viability at 1 µM (in vitro): 96% | Cytotoxicity % viability (MT2 cells): 88% | AUC(0-t) [1]: 143 µg·h/mL | Cmax [1]: 11100 ng/mL | Tmax [1]: 3.75 h

C=C(C)[C@@H]1CC[C@]2(C(=O)N3CCC[C@@H]3c3nc(-c4cccnc4)no3)CC[C@]3(C)[C@H](CC[C@@H]4[C@@]5(C)CC[C@H](OC(=O)CC(C)(C)C(=O)O)C(C)(C)[C@@H]5CC[C@]43C)[C@@H]12 [Compound 3, 2,2-dimethyl-4-oxo-4-((1R,3aS,5aR,5bR,7aR,9S,11aR,11bR,13aR,13bR)-5a,5b,8,8,11a-pentamethyl-1-(prop-1-en-2-yl)-3a-((R)-2-(3-(pyridin-3-yl)-1,2,4-oxadiazol-5-yl)pyrrolidine-1-carbonyl)icosahydro-1H-cyclopenta[a]chrysen-9-yloxy)butanoic acid]
inhibition at 0.1 µM (HIV-1 strain 92HT599): 100% | inhibition at 1 µM (HIV-1 strain 92HT599): 100% | pIC50 (HIV-1 strain 92HT599): 8.48 | viability at 1 µM (in vitro): 97% | Cytotoxicity % viability (MT2 cells): 100% | AUC(0-t) [1]: 66.5 µg·h/mL | Cmax [1]: 7430 ng/mL | Tmax [1]: 1.75 h

CC(C)(CC(=O)O)CC(=O)O[C@H]1CC[C@]2(C)[C@H]3CC[C@@H]4[C@H]5[C@H](C6(C)CC6)CC[C@]5(C(=O)N5CCC[C@H]5c5ncc(-c6ccccc6)[nH]5)CC[C@@]4(C)[C@]3(C)CC[C@H]2C1(C)C [Compound 13, 3,3-dimethyl-5-oxo-5-((1R,3aS,5aR,5bR,7aR,9S,11aR,11bR,13aR,13bR)-5a,5b,8,8,11a-pentamethyl-1-(1-methylcyclopropyl)-3a-((S)-2-(5-phenyl-1H-imidazol-2-yl)pyrrolidine-1-carbonyl)icosahydro-1H-cyclopenta[a]chrysen-9-yloxy)pentanoic acid]
inhibition at 0.1 µM (HIV-1 strain 92HT599): 78% | inhibition at 1 µM (HIV-1 strain 92HT599): 100% | viability at 1 µM (in vitro): 74% | Cytotoxicity % viability (MT2 cells): 72% | AUC(0-t) [1]: 156 µg·h/mL | Cmax [1]: 11100 ng/mL | Tmax [1]: 4 h

C=C(C)[C@@H]1CC[C@]2(C(=O)N3CCC[C@H]3c3ncc(-c4ccccc4)[nH]3)CC[C@]3(C)[C@H](CC[C@@H]4[C@@]5(C)CC[C@H](OC(=O)CC(C)(C)CC(=O)O)C(C)(C)[C@@H]5CC[C@]43C)[C@@H]12 [Compound 9, 3,3-dimethyl-5-oxo-5-((1R,3aS,5aR,5bR,7aR,9S,11aR,11bR,13aR,13bR)-5a,5b,8,8,11a-pentamethyl-3a-((S)-2-(5-phenyl-1H-imidazol-2-yl)pyrrolidine-1-carbonyl)-1-(prop-1-en-2-yl)icosahydro-1H-cyclopenta[a]chrysen-9-yloxy)pentanoic acid]
inhibition at 0.1 µM (HIV-1 strain 92HT599): 81% | inhibition at 1 µM (HIV-1 strain 92HT599): 98% | viability at 1 µM (in vitro): 100% | Cytotoxicity % viability (MT2 cells): 99% | AUC(0-t) [1]: 58 µg·h/mL | Cmax [1]: 5460 ng/mL | Tmax [1]: 6 h
